Experiments:
[1] = system: Pseudomonas aeruginosa (Immunotype 1); experiment: In vivo protection against Pseudomonas aeruginosa infection in cyclophosphamide-immunosuppressed CFl female mice (LD50 / protective index); details: CY-treated mice, LD50 (CY + test compound) / LD50 (CY alone); for Protective Index (log): Table 3, Pseudomonas aeruginosa, dose and route not given; for P.I. (log): PA, sub cutaneous
Experimental: (§1) Groups of 15-20 CFl female mice (Charles River Breeding, Cambridge, MA) weighing 22-28 gm were injected intraperitoneally (i.p.) with cyclophosphamide (Cytoxan; CY) at 250 mg per kg body weight. One to two hours later they were typically injected again with the test material by the route specified. Four days later, the mice were divided into groups of five, each of which were injected i.p. with a different dilution of a suspension of Pseudomonas aeruginosa (Immunotype 1). The number of survivors was determined periodically and an estimate was made of the number of CFU of Pseudomonas organisms necessary to cause 50% lethality by the cumulative method of L. J. Reed and H. Muench (Am. J. Hygeine 27 (1938) 493-497). A protective index (P.I.) was defined as the LD50 for the mice receiving cyclophosphamide and the test compound divided by the LD50 for the mice receiving cyclophosphamide alone. All control mice were injected with aqueous vehicle in the same route and schedule as the test animals.
(§2) All compounds for dosing were suspended in a sterile medium referred to as "aqueous vehicle" which contains 0.9% sodium chloride, 0.5% carboxymethyl cellulose, 0.4% Tween 80, and 0.9% benzyl alcohol unless otherwise stated. Test materials were evaluated via subcutaneous (s.c.), i.p., intramuscular (i.m.), orally (p.o.). and intravenous (i.v.) routes of administration. The initial test dose was 40 mg per kg per mouse, with each active compound subsequently titrated below this level.
(§3) All bacteria were inoculated i.p. to induce infection in the in vivo experiments. Candida albicans, however, was administered i.v. Bacteria cultures were harvested in the log phase, washed with phosphate buffered saline (PBS, and resuspended in PBS containing 10% glycerol for freezing at -70° C. in 1 ml aliquots. The number of […] (cfu's) was determined before and after freezing. Frozen cultures were routinely thawed and diluted in sterile PBS just prior to inoculation. Viable cell counts were routinely done on thawed cultures the day of challenge to determine the number of cfu's. Candida albicans was stored in distilled water at room temperature. Viable cell counts were determined the day of testing.
(§4) The testing and results of 6-(5-cholesten-3β-yloxy)hexyl-1-thio-β-D-mannopyranoside (Example 2) against various orgaisms is shown in Table 2.

[2] = system: Candida albicans; experiment: In vivo protection against Candida albicans infection in cyclophosphamide-immunosuppressed mice (LD50 / protective index); details: CA i.v., CY-treated mice, sub cutaneous, LD50 (CY + test compound) / LD50 (CY alone)
Experimental: as §1
as §2, with “The initial test dose was 40 mg per kg per mouse, with each active compound subsequently titrated below this level.” left out
as §3, with “testing. […]” for “testing.”

[3] = system: Staphylococcus aureus; experiment: In vivo protection against Staphylococcus aureus infection in cyclophosphamide-immunosuppressed mice (LD50 / protective index); details: SA, CY-treated mice, sub cutaneous, LD50 (CY + test compound) / LD50 (CY alone)
Experimental: as §1, §2, §3, §4

| Compound | Protective Index (log) [1] | also measured |
| --- | --- | --- |
| CC(C)CCC[C@@H](C)[C@H]1CC[C@H]2[C@@H]3CC=C4C[C@@H](OCCCCCCS[C@H]5O[C@H](CO)[C@@H](O)[C@H](O)[C@@H]5O)CC[C@]4(C)[C@H]3CC[C@]12C [Example 1, 6-(5-Cholesten-3β-yloxy)hexyl 1-thio-α-D-mannopyranoside] | 1.5 log | – |
| CC(C)CCC[C@@H](C)[C@H]1CC[C@H]2[C@@H]3CC=C4C[C@@H](OCCCCCCS[C@@H]5O[C@H](CO)[C@@H](O)[C@H](O)[C@@H]5O)CC[C@]4(C)[C@H]3CC[C@]12C [Example 2, 6-(5-Cholesten-3β-yloxy)hexyl 1-thio-β-D-mannopyranoside] | 4.5 log | P.I. (log) ([1]; 10 mg/kg): 2.75 log; P.I. (log) ([1]; 20 mg/kg): 3.75 log; P.I. (log) ([1]; 40 mg/kg): 4.33 log; P.I. (log) ([1]; 80 mg/kg): 4.66 log; P.I. (log) ([2]; 10 mg/kg): 0.67 log; P.I. (log) ([2]; 20 mg/kg): 0.81 log; P.I. (log) ([2]; 40 mg/kg): 1 log; P.I. (log) ([3]; 5 mg/kg): 0.99 log; P.I. (log) ([3]; 10 mg/kg): 1.47 log; P.I. (log) ([3]; 20 mg/kg): 1.83 log; P.I. (log) ([3]; 40 mg/kg): 2.66 log |
| CC(C)CCC[C@@H](C)[C@H]1CC[C@H]2[C@@H]3CC=C4C[C@@H](OCCCCCCS[C@@H]5O[C@@H](C)[C@@H](O)[C@@H](O)[C@@H]5O)CC[C@]4(C)[C@H]3CC[C@]12C [Example 3, 6-(5-Cholesten-3β-yloxy)hexyl 1-thio-α-L-fucopyranoside] | 2.8 log | – |
| CC(C)CCC[C@@H](C)[C@H]1CC[C@H]2[C@@H]3CC=C4C[C@@H](OCCCCCCS[C@H]5O[C@@H](C)[C@@H](O)[C@@H](O)[C@@H]5O)CC[C@]4(C)[C@H]3CC[C@]12C [Example 4, 6-(5-Cholesten-3β-yloxy)hexyl 1-thio-β-L-fucopyranoside] | 1.3 log | – |
| CC(C)CCC[C@@H](C)[C@H]1CC[C@H]2[C@@H]3CC=C4C[C@@H](OCCOCCS[C@@H]5O[C@H](CO)[C@@H](O)[C@H](O)[C@@H]5O)CC[C@]4(C)[C@H]3CC[C@]12C [Example 5, 2-(2-(5-Cholesten-3β-yloxy)ethoxy)ethyl 1-thio-β-D-mannopyranoside] | 1.7 log | – |
| CC[C@H](C=C[C@@H](C)[C@H]1CC[C@H]2[C@@H]3CC=C4C[C@@H](OCCCCCCS[C@@H]5O[C@H](CO)[C@@H](O)[C@H](O)[C@@H]5O)CC[C@]4(C)[C@H]3CC[C@]12C)C(C)C [Example 6, 6-(Stigmasta-5,22-dien-3β-yloxy)hexyl 1-thio-β-D-mannopyranoside] | 2.0 log | – |
| CC(=O)[C@H]1CC[C@H]2[C@@H]3CC=C4C[C@@H](OCCCCCCS[C@@H]5O[C@H](CO)[C@@H](O)[C@H](O)[C@@H]5O)CC[C@]4(C)[C@H]3CC[C@]12C [Example 7, 6-(Pregn-5-en-20-one-3β-yloxy)hexyl 1-thio-βD-mannopyranoside] | 3.5 log | – |
| COC(=O)[C@H]1CC[C@H]2[C@@H]3CC=C4C[C@@H](OCCCCCCS[C@@H]5O[C@H](CO)[C@@H](O)[C@H](O)[C@@H]5O)CC[C@]4(C)[C@H]3CC[C@]12C [Example 8, 6-(17β-Carbomethoxy-androst-5-en-3β-yloxy)hexyl 1-thio-β-D-mannopyranoside] | 2.5 log | – |
| C[C@]12CC[C@H]3[C@@H](CC=C4C[C@@H](OCCCCCCS[C@@H]5O[C@H](CO)[C@@H](O)[C@H](O)[C@@H]5O)CC[C@@]43C)[C@@H]1CC[C@@H]2C(N)=O [Example 9, 6-(17β-Carbamido-androst-5-en-3β-yloxy)hexyl 1-thio-β-D-mannopyranoside] | 2.5 log | – |
| CC(O)[C@H]1CC[C@H]2[C@@H]3CC=C4C[C@@H](OCCCCCCS[C@@H]5O[C@H](CO)[C@@H](O)[C@H](O)[C@@H]5O)CC[C@]4(C)[C@H]3CC[C@]12C (stereo partly drawn) [Example 10, 6-(Pregn-5-en-20-ol-3β-yloxy)hexyl 1-thio-β-D-mannopyranoside] | 1.3 log | – |
| CC(=O)N[C@@H](C)[C@H]1CC[C@H]2[C@@H]3CC=C4C[C@@H](OCCCCCCS[C@@H]5O[C@H](CO)[C@@H](O)[C@H](O)[C@@H]5O)CC[C@]4(C)[C@H]3CC[C@]12C [Example 11, 6-(20S-Acetamido-pregn-5-en-3β-yloxy)hexyl 1-thio-β-D-mannopyranoside] | 3.0 log | – |
| CC(=O)N[C@H](C)[C@H]1CC[C@H]2[C@@H]3CC=C4C[C@@H](OCCCCCCS[C@@H]5O[C@H](CO)[C@@H](O)[C@H](O)[C@@H]5O)CC[C@]4(C)[C@H]3CC[C@]12C [Example 12, 6-(20R-Acetamido-pregn-5-en-3β-yloxy)hexyl 1-thio-β-D-mannopyranoside] | 2.6 log | – |

Reference: US4652637A, “Steroidal glycolipids” (priority 1985, dated 1987)
